Test results taken from ChEMBL document CHEMBL1146940, “Structure-activity relationship study between Ornithyl-Proline and Lysyl-Proline based tripeptidomimics as angiotensin-converting enzyme inhibitors” (Bioorg Med Chem Lett, 2006).
Square brackets hold non-standard residues; d marks the D form. Peptide text beside a SMILES is read from it. Trp(5-OH) = N[C@@H](Cc1c[nH]c2ccc(O)cc12)C(=O)O; NMeW = CN[C@@H](Cc1c[nH]c2ccccc12)C(=O)O; Dip = N[C@H](C(=O)O)C(c1ccccc1)c1ccccc1; β3hW = N[C@H](CC(=O)O)Cc1c[nH]c2ccccc12; Tic = O=C(O)[C@@H]1Cc2ccccc2CN1; 3Thi = N[C@@H](Cc1ccsc1)C(=O)O; Cha = N[C@@H](CC1CCCCC1)C(=O)O; Orn = NCCC[C@H](N)C(=O)O

How the values were obtained:
[1] = molecular target: Angiotensin-converting enzyme (Bos taurus) (UniProt P12820); test: Activity against ACE in bovine kidney
Sequence of Angiotensin-converting enzyme (Bos taurus) (P12820 whole entry, looked up): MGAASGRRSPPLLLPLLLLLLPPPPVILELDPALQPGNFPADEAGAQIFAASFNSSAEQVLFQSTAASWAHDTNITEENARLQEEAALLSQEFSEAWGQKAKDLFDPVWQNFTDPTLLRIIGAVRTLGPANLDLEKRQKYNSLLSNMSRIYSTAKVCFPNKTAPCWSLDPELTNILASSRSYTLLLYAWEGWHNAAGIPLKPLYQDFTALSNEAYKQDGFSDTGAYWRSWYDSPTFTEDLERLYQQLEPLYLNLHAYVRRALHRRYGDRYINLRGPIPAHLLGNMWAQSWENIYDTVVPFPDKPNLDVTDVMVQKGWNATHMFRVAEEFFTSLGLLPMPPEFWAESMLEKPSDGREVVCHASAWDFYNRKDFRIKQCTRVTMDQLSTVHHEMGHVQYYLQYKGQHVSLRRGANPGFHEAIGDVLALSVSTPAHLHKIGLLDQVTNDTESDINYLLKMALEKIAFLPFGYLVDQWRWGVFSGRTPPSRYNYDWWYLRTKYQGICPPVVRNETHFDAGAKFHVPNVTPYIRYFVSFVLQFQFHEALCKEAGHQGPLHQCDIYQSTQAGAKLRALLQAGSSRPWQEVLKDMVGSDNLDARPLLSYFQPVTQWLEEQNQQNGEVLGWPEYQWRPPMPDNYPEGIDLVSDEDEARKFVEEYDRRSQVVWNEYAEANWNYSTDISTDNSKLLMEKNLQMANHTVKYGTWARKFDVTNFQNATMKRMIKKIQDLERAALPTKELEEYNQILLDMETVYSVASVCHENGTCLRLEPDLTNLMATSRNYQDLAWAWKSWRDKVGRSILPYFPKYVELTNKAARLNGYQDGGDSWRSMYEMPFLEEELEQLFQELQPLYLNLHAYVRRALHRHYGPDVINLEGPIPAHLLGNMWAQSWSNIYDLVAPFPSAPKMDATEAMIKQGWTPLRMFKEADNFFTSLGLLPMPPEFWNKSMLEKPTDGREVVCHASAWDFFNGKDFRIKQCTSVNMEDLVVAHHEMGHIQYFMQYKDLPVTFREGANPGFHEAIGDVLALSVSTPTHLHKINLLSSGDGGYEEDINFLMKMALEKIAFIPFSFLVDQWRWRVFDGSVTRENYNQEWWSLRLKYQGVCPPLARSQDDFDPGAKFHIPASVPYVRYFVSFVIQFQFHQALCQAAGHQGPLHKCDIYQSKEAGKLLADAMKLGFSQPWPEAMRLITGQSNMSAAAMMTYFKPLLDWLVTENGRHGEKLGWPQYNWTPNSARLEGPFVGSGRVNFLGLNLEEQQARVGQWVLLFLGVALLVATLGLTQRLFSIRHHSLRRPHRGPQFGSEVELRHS

[2] = molecular target: Angiotensin-converting enzyme (Bos taurus) (UniProt P12820); test: Inhibition of ACE in bovine kidney; design: concentration or dose not given beside the values; conditions: concentration not given here

SMILES	Activity [1]	inhibition [2]
NCCCC[C@H](NC(=O)CCc1ccc(O)cc1)C(=O)N1CCC[C@H]1C(=O)O	9.52 mU/ml	29.3%
NCCCC[C@H](NC(=O)C[C@@H](N)Cc1ccccc1)C(=O)N1CCC[C@H]1C(=O)O	10.4 mU/ml	22.6%
NCCCC[C@H](NC(=O)[C@@H](N)Cc1ccco1)C(=O)N1CCC[C@H]1C(=O)O	12.1 mU/ml	10.1%
NCCC[C@H](NC(=O)CCc1ccc(O)cc1)C(=O)N1CCC[C@H]1C(=O)O	10.3 mU/ml	23.8%
NCCC[C@H](NC(=O)CCc1nc2ccccc2[nH]1)C(=O)N1CCC[C@H]1C(=O)O	4.7 mU/ml	65.5%
NCCC[C@H](NC(=O)C[C@@H](N)Cc1ccccc1)C(=O)N1CCC[C@H]1C(=O)O	9.21 mU/ml	31.7%
NCCC[C@H](NC(=O)[C@@H](N)Cc1ccco1)C(=O)N1CCC[C@H]1C(=O)O	8.67 mU/ml	35.6%
NCCCC[C@H](NC(=O)[C@@H](N)Cc1ccsc1)C(=O)N1CCC[C@H]1C(=O)O (H-[3Thi]-Lys-Pro-OH)	11.7 mU/ml	13.3%
NCCC[C@H](NC(=O)[C@@H](N)Cc1ccsc1)C(=O)N1CCC[C@H]1C(=O)O (H-[3Thi]-[Orn]-Pro-OH)	3.41 mU/ml	74.7%
NCCCC[C@H](NC(=O)[C@@H](N)CC1CCCCC1)C(=O)N1CCC[C@H]1C(=O)O (H-[Cha]-Lys-Pro-OH)	13.1 mU/ml	3.71%
NCCC[C@H](NC(=O)[C@@H](N)CC1CCCCC1)C(=O)N1CCC[C@H]1C(=O)O (H-[Cha]-[Orn]-Pro-OH)	9.32 mU/ml	30.8%
NCCCC[C@H](NC(=O)[C@@H](N)C(c1ccccc1)c1ccccc1)C(=O)N1CCC[C@H]1C(=O)O (H-[Dip]-Lys-Pro-OH)	8.91 mU/ml	33.8%
NCCC[C@H](NC(=O)[C@@H](N)C(c1ccccc1)c1ccccc1)C(=O)N1CCC[C@H]1C(=O)O (H-[Dip]-[Orn]-Pro-OH)	9.74 mU/ml	27.7%
CN[C@@H](Cc1c[nH]c2ccccc12)C(=O)N[C@@H](CCCCN)C(=O)N1CCC[C@H]1C(=O)O (H-[NMeW]-Lys-Pro-OH)	8.2 mU/ml	39.1%
CN[C@@H](Cc1c[nH]c2ccccc12)C(=O)N[C@@H](CCCN)C(=O)N1CCC[C@H]1C(=O)O (H-[NMeW]-[Orn]-Pro-OH)	4.88 mU/ml	63.6%
NCCCC[C@H](NC(=O)[C@@H]1Cc2ccccc2CN1)C(=O)N1CCC[C@H]1C(=O)O (H-[Tic]-Lys-Pro-OH)	10.8 mU/ml	19.4%
NCCC[C@H](NC(=O)[C@@H]1Cc2ccccc2CN1)C(=O)N1CCC[C@H]1C(=O)O (H-[Tic]-[Orn]-Pro-OH)	10.1 mU/ml	25%
NCCC[C@H](NC(=O)[C@@H](N)Cc1c[nH]c2ccc(O)cc12)C(=O)N1CCC[C@H]1C(=O)O (H-[Trp(5-OH)]-[Orn]-Pro-OH)	4.2 mU/ml	68.8%
NCCCC[C@H](NC(=O)C[C@@H](N)Cc1c[nH]c2ccccc12)C(=O)N1CCC[C@H]1C(=O)O (H-[β3hW]-Lys-Pro-OH)	9.4 mU/ml	30.2%
NCCC[C@H](NC(=O)C[C@@H](N)Cc1c[nH]c2ccccc12)C(=O)N1CCC[C@H]1C(=O)O (H-[β3hW]-[Orn]-Pro-OH)	12.2 mU/ml	9.13%
